Measurements: patent publication US4507314A, “Drug for treating affections provoked by a too high histamine level, of the gastroduodenal mucosa and allergic affections” (Midit, Societe Fiduciaire, priority 1983, dated 1985)
Like-named read-outs stand apart in the source and are kept apart here.

Columns and labels:
[1] = tested on: histamine levels in the fundus, corpus and antrum mucosa; settings: 4 weeks
From the text: (§1) Photographs of the ulcer and biopsies of the stomach mucosa were taken before and after each week of treatment.

[2] = tested on: histamine level of the plasma
From the text: as §1

[3] = tested on: gastric ulcers induced in rats by immobilisation; settings: intraperitoneal; expressed in terms of dry (+)-catechin; immobilised 12 hours
Procedure: (a) on ulcers induced by stress caused by immobilization: After one week adaptation to the environment, female rats, (30 animals per group, 5 per cage), were immobilised during 12 hours by wrapping them, under narcosis with ether, in a plaster bandage.
After sacrifice of the animals, the dissected stomach was visually inspected and the lesions of the mucosa were scored according to their number and their intensity.
The products to be tested were administered, immediately before the test, by intraperitoneal injection of 2 ml of a freshly prepared saline solution. The doses tested varied from 0.1 to 50 mg/kg. The controls received 2 ml of saline.

[4] = tested on: histamine level of the mucosa of the fundus, of the corpus and of the antrum; settings: 3 days, healthy persons
[5] = tested on: leucocytes; settings: preincubation 10 minutes at 37° C., pollen or house dust 30 minutes
Procedure: Then the histamin level was measured in the leucocyte suspension and the supernatant liquid and compared to the values obtained from the controls.

[6] = tested on: histamine content in rat stomach mucosa; settings: 30 mg/kg intraperitoneal
[7] = tested on: necrosis of the gastric mucosa induced by acetic acid; settings: 150 mg/kg orally, twice a day during 5 days
Procedure: In rats fasted for 24 hours, necrosis of the gastric mucosa was induced by intra-gastric administration of acetic acid (1 ml at 20%) one hour before treatment.
Accordingly the rats were sacrified, the stomach mucosa was photographed and the lesions were scored.

[8] = tested on: histamine level in lung tissue; settings: 30 mg/kg per os, 3 times a day during 3 days; five hours after the last treatment
Procedure: The drug was administered per os as a suspension in carboxymethyl cellulose (1% in water).

[9] = tested on: rat peritoneal mastocytes; settings: 30 mg/kg per os, 3 times a day during 3 days; 0.5 μg/ml compound 48/80, 10 minutes at 37° C.
[10] = biological target: T1, histidine decarboxylase (Oryctolagus cuniculus, UniProt G1TCH4); experiment: inhibition of histidine decarboxylase extracted from rabbit stomach, in vitro; settings: read-out: IC50, inhibition of histidine decarboxylase, enzyme extracted from rabbit stomach
T1 sequence (G1TCH4 1-661): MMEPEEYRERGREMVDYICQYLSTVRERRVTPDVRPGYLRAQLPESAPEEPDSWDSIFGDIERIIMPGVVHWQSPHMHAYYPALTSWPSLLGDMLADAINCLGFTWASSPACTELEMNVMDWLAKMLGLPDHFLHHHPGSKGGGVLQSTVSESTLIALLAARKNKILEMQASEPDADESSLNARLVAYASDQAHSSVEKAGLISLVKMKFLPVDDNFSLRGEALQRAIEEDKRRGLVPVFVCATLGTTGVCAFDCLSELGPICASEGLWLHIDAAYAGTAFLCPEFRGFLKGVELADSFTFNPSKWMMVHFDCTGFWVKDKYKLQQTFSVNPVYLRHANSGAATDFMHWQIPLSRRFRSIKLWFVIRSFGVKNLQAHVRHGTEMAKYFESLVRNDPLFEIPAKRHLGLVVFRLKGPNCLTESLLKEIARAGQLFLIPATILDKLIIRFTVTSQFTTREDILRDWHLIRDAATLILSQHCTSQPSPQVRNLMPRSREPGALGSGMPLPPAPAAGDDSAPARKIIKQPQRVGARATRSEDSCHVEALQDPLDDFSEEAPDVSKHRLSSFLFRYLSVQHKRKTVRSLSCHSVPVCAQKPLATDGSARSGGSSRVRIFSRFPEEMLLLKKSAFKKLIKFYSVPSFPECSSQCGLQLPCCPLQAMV

[11] = tested on: human duodenal ulcer; settings: after 1 month of treatment, 1500 mg daily
From the text: as §1

[12] = tested on: intragastric pH; settings: in vivo
From the text: as §1

[13] = tested on: stress induced gastric ulcers; settings: 30 mg/kg oral, 3 times a day during 3 days; immobilisation 12 hours; control group 38%
Procedure: The tested product was given 3 times a day during the 3 days preceding the experiment. The last administration was given 1 hour before immobilisation of the rats during 12 hours.

[14] = tested on: rat peritoneal mastocytes; settings: 10^-50 M (so in the source); 48/80 stimulated; 37° C., 10 minutes
[15] = tested on: histamine content in the lungs; settings: 30 mg/kg intraperitoneal
[16] = 1500 mg daily, duodenal ulcer patients

Compound: CN/C(=N/CCSCc1nc[nH]c1C)NC#N [cimetidine, reference compound]
- effect on the histamine levels in the stomach mucosa ([1]; 800 mg cimetidine daily): no notable effect or induced an increase
- increase of the histamine levels in the stomach mucosa ([1]; in some cases, 800 mg cimetidine daily): more than 10%
- effect on the histamine levels in the plasma ([2]; 800 mg cimetidine daily, 4 weeks): no notable effect or induced an increase
- increase of the histamine levels in the plasma ([2]; in some cases, 800 mg cimetidine daily, 4 weeks): more than 10%

Compound: (+)-catechin ascorbolysinate
- ED50 in the gastric ulcers induced in rats by immobilisation [3]: 1.5 mg/kg

Compound: (+)-catechin hydrochlorolysinate
- number of mastocytes ([4]; 500, 1000 or 1500 mg per day per os, same way as the histamine level): decreased in the same way
- decrease of the histamine level of the mucosa of the fundus, of the corpus and of the antrum ([4]; highest dose (1500 mg per day), per os, dose dependent): 30%
- release inhibition, leucocytes ([5]; 10^-5 M): 45%
- release inhibition, leucocytes ([5]; 10^-6 M): 45%
- decrease of the histamine content in rat stomach mucosa [6]: 33%
- reduction of the number of animals with severe lesions [7]: 50%
- decrease of the histamine level in the homogenized lung tissue compared to the control group [8]: 38%
- decrease of histamine release of the mastocytes compared to the controls [9]: 22%
- IC50 [10]: 100 µM
- ulcer diameter of the other (not fully recovered) patients [11]: decreased significantly
- patients fully recovered ([11]; out of 11): 7 patients
- decrease of the histamine levels in the fundus, corpus and antrum mucosa [1, 16]: ~20%
- decrease of the number of mastocytes in the fundus, corpus and antrum mucosa [1, 16]: ~20%
- effect on the intragastric pH [12]: no effect
- mean histamine level of the plasma after treatment ([2]; 1500 mg daily, decreased from 0.7 (±0.3) ng/ml, observed after one week, constant during the following 3 weeks): 0.3 (±0.1) ng/ml
- proportion of rats with severe lesions [13]: 15%
- inhibition of release of histamine from rat peritoneal mastocytes [14]: 27%
- decrease of the histamine content in the lungs [15]: 38%
- ED50 in the gastric ulcers induced in rats by immobilisation [3]: 5 mg/kg
